According to patent publication US10757937B2, “Sulfonamides that activate ABA receptors” (The Regents of the University of California, priority 2014, dated 2020):
Where two headings read alike, the source gives them in different places.

Key:
[1] = tested on: Arabidopsis seed germination and hypocotyl growth; assay: Arabidopsis seed germination and hypocotyl growth; assay type: in vivo; conditions: − = none; for Hypocotyl Growth Inhibition / Germination Inhibition: Germination Inhibition II, tested at 10 and 50 uM; for Hypocotyl Growth Inhibition: lowest concentration that inhibited hypocotyl growth in wells where seeds germinated; for minimal effective concentration: Table VIII, tested at 10 or 50 μM, lowest inhibiting concentration; for Germination Inhibition: lowest of the two concentrations that inhibited
Method: We germinated seeds from wild type on ½× strength Murashige and Skoog salts growth medium containing either 10 or 50 μM for all 62 compounds as well as 1 μM (+)-ABA and mock controls. […] To investigate if the any of the compounds are sufficient to control vegetative ABA responses, we treated three week old Arabidopsis plants with aqueous solutions containing 0.02% Silwet and either 50 μM of selected N-acylsulfonamides, 50 μM ABA or 0.1% DMSO (the carrier solvent for the compounds tested). The leaf temperatures were subsequently examined using a thermal imaging camera 24 hours after treatment. It is well known that ABA-induced guard cell closure reduces transpiration, which leads to increases in leaf temperatures. It has been estimated that a 1° C. increase in leaf temperature correlates with a decrease in transpiration rates by approximately 50% (Sirault et al., 2009). Since guard cell aperture is the primary determinant of transpiration rates, thermal imaging is a useful way to indirectly infer relative transpiration rates and, indirectly, relative degrees of guard cell opening at the whole plant level.
(§1) Additional compounds were tested for biological activity following the procedures of Example 1 with minor modifications.
For the germination inhibition experiment, the compounds were tested at 10 and 50 uM. The amounts shown are the lowest of the two concentrations that either inhibited germination or hypocotyl growth in wells where seeds germinated.
For the germination test, the compounds were tested at 1, 5, 10, 25 and 50 uM. The amounts shown are the lowest of the concentrations that either inhibited germination or hypocotyl growth in the wells where seeds germinated.

PYL4 = target: T1, PYL4 (Arabidopsis thaliana, UniProt O80920); assay: receptor-mediated PP2C (HAB1) inhibition in vitro assay; assay type: biochemical; conditions: compound at 25 μM; control without agonist = 100%
T1 construct: 6X-His; made in house; host or cells: E. coli BL21[DE3]pLysS
T1 sequence (O80920 1-207): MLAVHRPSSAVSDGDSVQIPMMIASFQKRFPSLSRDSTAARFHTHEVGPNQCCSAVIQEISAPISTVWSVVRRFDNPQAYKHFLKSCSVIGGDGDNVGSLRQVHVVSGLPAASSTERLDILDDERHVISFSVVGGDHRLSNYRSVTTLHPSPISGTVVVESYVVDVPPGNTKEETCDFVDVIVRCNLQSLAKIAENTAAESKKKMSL
T1 sequence (Q9CAJ0 23-511 partner): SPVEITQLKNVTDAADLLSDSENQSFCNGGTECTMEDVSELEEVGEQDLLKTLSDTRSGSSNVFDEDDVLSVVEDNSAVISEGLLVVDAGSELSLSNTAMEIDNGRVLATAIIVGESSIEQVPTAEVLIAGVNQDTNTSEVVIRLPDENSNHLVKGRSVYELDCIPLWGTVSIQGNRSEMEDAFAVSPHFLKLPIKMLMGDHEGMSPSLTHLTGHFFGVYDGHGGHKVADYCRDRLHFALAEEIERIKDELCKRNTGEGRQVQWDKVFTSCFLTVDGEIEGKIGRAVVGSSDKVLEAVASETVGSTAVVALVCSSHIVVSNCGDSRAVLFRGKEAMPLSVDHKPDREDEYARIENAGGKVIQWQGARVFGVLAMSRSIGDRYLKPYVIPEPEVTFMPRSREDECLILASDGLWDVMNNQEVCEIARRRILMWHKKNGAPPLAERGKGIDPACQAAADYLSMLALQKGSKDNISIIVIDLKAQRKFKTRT
Method: (§2) A family of 62 structurally related N-acyl sulfonamides (Tables I-V) were tested for ABA agonist activity using multiple receptor-mediated PP2C inhibition in vitro assays (Park et al., 2009). […] The constructs utilized for protein expression have been previously described (Okamoto et al. 2013). For constructs encoding 6X-His-fusion proteins (all receptors except PYL11), the coding sequences were of the receptors were cloned in the vector pET28, expressed in BL21[DE3]pLysS E. coli host cells at 18° C. overnight, and subsequently purified from sonicated lysates using Ni-NTA agarose (Qiagen, USA), according to the manufacturer's instructions. PYL11 was constructed as a maltose binding protein fusion in the vector pMAL-c, expressed in BL21┌DE3┐pLysS host cells and purified using amylose resin (New England Biolabs) as described by the manufacturer. Recombinant GST-HAB1 was expressed and purified as described previously (Park et al., 2009). PP2C activity assays were conducted using the fluorogenic phosphatase substrate 4-methylumbelliferyl-phosphate. Recombinant receptors and HAB1 were used to examine ligand-induced PP2C inactivation in response to multiple test compounds. Enzyme inhibition assays were conducted using the following assay conditions: 50 nM GST-PP2C, 100 mM Tris-OAc (pH 7.9), 100 mM NaCl, 1 mM MnCl2, 1% β-mercaptoethanol. […] Because of this, the ratio of each receptor used in the PP2C-inhibitions assays was established empirically as the minimum fold-excess of receptor required to elicit maximal PP2C inhibition at a saturating ABA concentration (10 μM).
(§3) Based on this criterion, we used a ratio of 2:1 receptor in the assays described herein.
(§4) Using the above assay conditions, compounds were tested at 25 μM for agonist activity on PYL4, PYL5, PYL8 and PYL9. […] Consequently, a subset of the compounds was tested at multiple concentrations against 11 receptors so that IC50 values and receptor selectivity profiles could be examined. […] Thus, the N-acylsulfonamide agonists disclosed are selective for monomeric receptors.
as §1
(§5) For these in vitro receptor assays, the compounds listed were tested in in vitro PP2C inhibition assays with 50 uM of the test compound except for ABA (10 uM). IC50s were calculated from dose curves, but only for selected compounds.

PYL9 = target: T2, PYL9 (Arabidopsis thaliana, UniProt Q84MC7); assay: as above; assay type: biochemical; conditions: compound at 25 μM; control without agonist = 100%
T2 construct: 6X-His; made in house; host or cells: E. coli BL21[DE3]pLysS
T2 sequence (Q84MC7 1-187): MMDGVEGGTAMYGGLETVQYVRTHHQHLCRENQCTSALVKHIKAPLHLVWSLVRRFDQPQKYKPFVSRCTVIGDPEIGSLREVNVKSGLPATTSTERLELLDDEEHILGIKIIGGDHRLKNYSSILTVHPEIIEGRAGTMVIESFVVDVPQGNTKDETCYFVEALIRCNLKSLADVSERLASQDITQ
T2 sequence (Q9CAJ0 23-511 partner): T1 sequence (Q9CAJ0 23-511 partner)
Method: as §2, §3, §4, §1, §5

PYL8 = target: T3, PYL8 (Arabidopsis thaliana, UniProt Q9FGM1); assay: as above; assay type: biochemical; conditions: compound at 25 μM; control without agonist = 100%
T3 construct: 6X-His; made in house; host or cells: E. coli BL21[DE3]pLysS
T3 sequence (Q9FGM1 1-188): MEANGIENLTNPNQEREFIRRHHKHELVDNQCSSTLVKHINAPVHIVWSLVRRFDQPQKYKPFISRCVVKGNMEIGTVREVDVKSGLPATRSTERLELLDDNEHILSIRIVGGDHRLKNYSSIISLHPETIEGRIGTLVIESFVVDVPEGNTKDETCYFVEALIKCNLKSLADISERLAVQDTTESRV
T3 sequence (Q9CAJ0 23-511 partner): T1 sequence (Q9CAJ0 23-511 partner)
Method: as §2, §3, §4, §1, §5

PYL5 = target: T4, PYL5 (Arabidopsis thaliana, UniProt Q9FLB1); assay: as above; assay type: biochemical; conditions: compound at 25 μM; control without agonist = 100%
T4 construct: 6X-His; made in house; host or cells: E. coli BL21[DE3]pLysS
T4 sequence (Q9FLB1 1-203): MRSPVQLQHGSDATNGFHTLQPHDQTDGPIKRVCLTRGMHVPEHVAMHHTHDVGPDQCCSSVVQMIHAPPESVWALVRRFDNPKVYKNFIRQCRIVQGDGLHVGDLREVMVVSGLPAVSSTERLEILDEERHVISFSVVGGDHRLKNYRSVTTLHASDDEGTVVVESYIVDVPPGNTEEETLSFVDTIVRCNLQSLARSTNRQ
T4 sequence (Q9CAJ0 23-511 partner): T1 sequence (Q9CAJ0 23-511 partner)
Method: as §2, §3, §4, §1, §5

[2] = read-out: Hypocotyl Growth Inhibition
[3] = ABA at 1 μM, read-out: Germination Inhibition

SMILES	PP2C Activity (25 μm) PYL4 (PYL4) [%]	PP2C Activity (25 μm) PYL9 (PYL9) [%]	PP2C Activity (25 μm) PYL8 (PYL8) [%]	PP2C Activity (25 μm) PYL5 (PYL5) [%]	Hypocotyl Growth Inhibition [1] [µM]	minimal effective concentration [1, 2] [µM]	Germination Inhibition [1] [µM]	minimal effective concentration [1, 3] [µM]
CC(C)(C(=O)NS(=O)(=O)Cc1ccccc1)c1ccccc1 [Compound 5]	89	61	83	86	50	50	–	–
CCC(CC)(C(=O)NS(=O)(=O)Cc1ccc(C#N)cc1)c1ccc(Cl)cc1 [Compound 10]	93	73	83	75	50	50	–	–
CCC(CC)(C(=O)NS(=O)(=O)Cc1ccccc1C#N)c1ccccc1 [Compound 17]	85	94	95	96	50	50	–	–
N#Cc1ccc(CS(=O)(=O)NC(=O)C2(c3ccccc3)CC2)cc1 [Compound 27]	97	63	77	39	50	50	–	–
N#Cc1ccc(CS(=O)(=O)NC(=O)C2(c3ccc(Cl)cc3)CCC2)cc1 [Compound 28]	96	37	55	65	10	10	–	–
N#Cc1ccc(CS(=O)(=O)NC(=O)C2(c3cccc(F)c3)CCC2)cc1 [Compound 33]	98	24	39	81	10	10	–	–
CC(C)(C)c1ccc(C2(C(=O)NS(=O)(=O)Cc3ccc(C#N)cc3)CC2)cc1 [Compound 34]	95	107	103	99	–	–	50	50
Cc1cccc(C2(C(=O)NS(=O)(=O)Cc3ccc(C#N)cc3)CC2)c1 [Compound 38]	92	66	77	41	50	50	–	–
COc1ccc(C2(C(=O)NS(=O)(=O)Cc3ccc(C#N)cc3)CCCC2)cc1 [Compound 39]	98	66	71	110	10	10	50	50
COc1ccccc1C1(C(=O)NS(=O)(=O)Cc2ccc(C#N)cc2)CC1 [Compound 41]	93	81	89	27	10	10	–	–

The next lines start with results.

PP2C Activity (25 μm) PYL4 (PYL4) [%]	PP2C Activity (25 μm) PYL9 (PYL9) [%]	PP2C Activity (25 μm) PYL8 (PYL8) [%]	PP2C Activity (25 μm) PYL5 (PYL5) [%]	SMILES	Hypocotyl Growth Inhibition [1] [µM]	minimal effective concentration [1, 2] [µM]	Germination Inhibition [1] [µM]	minimal effective concentration [1, 3] [µM]
91	69	77	41	CC(C)(C(=O)NS(=O)(=O)Cc1ccc(C#N)cc1)c1ccccc1F [Compound 8]	10	10	50	50
91	47	58	43	CC(C)(C(=O)NS(=O)(=O)Cc1ccc(C#N)cc1)c1cccc(Br)c1 [Compound 9]	10	10	–	–
92	47	62	43	Cc1ccc(C(C)(C)C(=O)NS(=O)(=O)Cc2ccc(C#N)cc2)cc1 [Compound 12]	50	50	–	–
96	46	57	51	CC(C)(C(=O)NS(=O)(=O)Cc1ccc(C#N)cc1)c1cccc(Cl)c1 [Compound 15]	10	10	–	–
93	30	43	47	CC(C)(C(=O)NS(=O)(=O)Cc1ccc(C#N)cc1)c1cccc(F)c1 [Compound 16]	10	10	50	50
95	92	91	85	COc1ccc(C(C)(C)C(=O)NS(=O)(=O)Cc2ccc(C#N)cc2)cc1 [Compound 22]	10	10	–	–
